# From US20020049173A1, “Alteration of cellular behavior by antisense modulation of mRNA processing” (priority 1999, published 2002)
# In the oligonucleotide strings, read from the 5' end, every base follows the letter of its sugar. An asterisk marks phosphorothioate; unmarked linkages are phosphodiester. Other units and linkages are bracketed, terminal groups are in braces. A string of capitals states the bases alone. e = 2'-O-(2-methoxyethyl) (MOE); [5mC] = 5-methylcytosine
# How the values were obtained:
# E-selectin = E-selectin cell surface protein expression by flow cytometry in HUVEC; type: cell-based, human
# Method: (§1) HUVEC (Clonetics, San Diego, Calif.) were cultivated in endothelial basal media supplemented with 10% fetal bovine serum. Cells were treated with oligonucleotides as described previously (Chiang, 1991, J. Biol. Chem. 27:18162-18171; Vickers, 2000, Nucleic Acids Res. 28:1340-1347). Briefly, cells were incubated with a mixture of Lipofectin (Gibco BRL, Gaithersburg, Md.) and oligonucleotide for 4 hours. Cells were incubated for 2-24 hours, then treated with 5 ng/ml TNF-α for 2-3 hours to induce expression of E-selectin. Cells were then washed extensively with phosphate buffered saline (PBS), fresh complete media was added and cells were incubated at 37° C. until harvested.
# Following oligonucleotide treatment, cells were detached with D-PBS (without calcium and magnesium) supplemented with 4 mM EDTA. Cells were centrifuged at 5,000 rpm for 1 minute and washed in 2% bovine serum albumin (BSA), 0.2% sodium azide in D-PBS at 4° C. E-selectin-phycoerythrin antibody (Ancell) was then added at 1:100 in 0.1 ml of the above buffer, and incubated for 30 min at 4° C. in the dark. Cells were washed again as above and resuspended in 0.3 ml of PBS buffer with 0.5% formaldehyde. Cells were analyzed for E-selectin expression on a FACScan (Becton-Dickinson). Results are expressed as percentage of control expression based upon the mean fluorescence intensity.
# The treated cells were stimulated with TNF-α for 2 hours, then analyzed for E-selectin protein expression by flow cytometry. […] Results at the protein level are not as dramatic as at the RNA level due to the fact that the Type III message remains the predominant RNA species present (FIG. 2). Any change in protein stability resulting from the presence of the type I/II message would likely be partially masked by the more abundant Type III RNA.
# E-selectin mRNA [1] = assay: Non-quantitative RT-PCR of E-selectin Type I, II and III transcripts in HUVEC; type: cell-based, human; settings: relative to untreated cells, 200 nM stated for ISIS 106344
# Method: (§2) Total RNA was harvested from HUVEC at various times following TNF-α induction using a ToTALLY RNA kit (Ambion) according to the manufacturer's protocol). For Northern blots, RNA was separated on a 1.2% agarose gel containing 1.1% formaldehyde, then transferred to nylon membranes. Blots were hybridized with [^32P]-dCTP random prime labeled cDNA probes specific for E-selectin or […] (G3PDH) for 2 hours in Rapid-hyb solution (Amersham). Blots were washed with 2×SSC containing 0.1% SDS at room temperature, followed by 0.1×SSC containing 0.1% SDS at 60° C. Quantitation of RNA expression was performed using a Molecular Dynamics PhosphorImager. Anchored reverse transcriptase polymerase chain reaction (RT/PCR) was performed essentially as described by Chu et al. (supra.).
# To determine if processing could be controlled more specifically, oligonucleotides were also designed to the upstream polyadenylation signals. Non-quantitative RT-PCR was used to distinguish among the three forms of the message. In the absence of oligonucleotide, all three types of transcript were detected. […] This difference may be due to variation in the efficiency of PCR amplification on the varying length products, with the shorter Type I and II messages being more efficiently amplified than the Type III product. […] To determine if the effects of ISIS 106344 were unique, antisense oligonucleotides were designed to the Type I and Type II polyadenylation sites.
# To evaluate whether treatment with two oligonucleotides would result in the production of a single species of E-selectin message, HUVEC were treated with ISIS 106344, and either ISIS 135568 or ISIS 135570 (150 nM each). […] Cells were also treated with both ISIS 135568 and ISIS 135570.
# E-selectin mRNA [2] = assay: Stability of E-selectin messages after TNF-α removal (Northern blot, HUVEC); type: cell-based, human; settings: 200 nM
# Method: as §1
# as §2, with “Anchored reverse transcriptase polymerase chain reaction (RT/PCR) was performed essentially as described by Chu et al. (supra.).” left out
# [3] = test system: E-selectin mRNA (Type III polyadenylation signal and site); assay: E-selectin transcript forms by Northern blot in TNF-α-induced HUVEC; type: cell-based, human; settings: increasing oligonucleotide dose, TNF-α 2 hours
# Method: as §1, §2
# HUVEC were treated with 2′-O-methoxyethyl (MOE)/phosphorothioate antisense oligonucleotides directed to the Type III polyadenylation signal and site (Table 1A) as described above. After about 24 hours, cells were treated with TNF-α to induce E-selectin expression. Cells were harvested after 2 hours and RNA was isolated. E-selectin expression was analyzed by Northern blotting. […] With increasing oligonucleotide dose, the longer Type III message decreased while a shorter message increased (FIG. 2). This shorter message most likely represents a combination of Type I and II messages, because the Type II message is just 158 bases longer than the Type I message, and the difference in sizes cannot be resolved on the gel which was used.
# A549 cells [4] = assay: Sensitization of A549 cells to cisplatinum-induced cell death, propidium iodide staining; type: cell-based, human; settings: 100 nM oligo
# Method: A549 cells were treated with 100 nM ISIS 22783 or the 5-mismatch ISIS 26080 and cisplatinum at various doses. The percent apoptotic cells was quantitated by propidium iodide staining according to standard methods.
# murine bcl-x mRNA [5] = assay: bcl-xs mRNA expression in vivo in mouse liver; settings: preliminary experiments
# From the text: (§3) ISIS 22783 is also fully complementary to the murine bcl-x mRNA which makes it useful for animal studies.
# A549 cells [6] = assay: Sensitization of A549 cells to taxol-induced cell death, propidium iodide staining; type: cell-based, human; settings: 100 nM oligo
# Method: A549 cells were treated with 100 nM ISIS 22783 or the 5-mismatch ISIS 26080 and taxol at various doses. The percent apoptotic cells was quantitated by propidium iodide staining according to standard methods.
# murine bcl-x mRNA [7] = assay: bcl-xs mRNA induction in mouse cell lines bEND, AML12 and Hepa; type: cell-based
# From the text: as §3
# A549 cells [8] = assay: Sensitization of A549 cells to UV-induced cell death, propidium iodide staining; type: cell-based, human; settings: 100 nM oligo
# Method: A549 cells were treated with 100 nM ISIS 22783 or the 5-mismatch ISIS 26080 and exposed to ultraviolet (UV) radiation. The percent apoptotic cells was quantitated by propidium iodide staining according to standard methods.
# human bcl-x mRNA [9] = assay: Total bcl-x mRNA and bcl-xs/bcl-xl ratio in A549 cells, RNase protection; type: cell-based
# From the text: In accordance with the present invention, a series of oligonucleotides were designed to target different regions of human bcl-x RNA, using published sequences (Boise, L. H., et al., 1993, Cell 74, 597-608; Genbank Accession No. L20121, locus name “HSBCLXL,” incorporated herein as SEQ ID NO: 39). Antisense oligonucleotides were designed to target areas of exon 1 and exon 2 of human bcl-x, particularly around the exon 1/exon 2 splice site and in sequence regions present in bcl-xl but not in bcl-xs. All backbone linkages are phosphorothioates; All 2′MOE cytosines are 5-methylcytosines.
# Oligonucleotides were evaluated for their respective effects on bcl-xs and bcl-xl3 mRNA levels in A549 cells along with total bcl-x mRNA levels, using the RIBOQUANT™ RNase protection kit (Pharmingen, San Diego Calif.). All assays were performed according to manufacturer's protocols.
# A “walk” was done in this region with 20mer 2′-MOE phosphorothioate oligonucleotides targeted to sequences whose 5′ ends were 24, 26, 29, 31, 33, 37, 39, 41, 43, 44, 45 and 47 bases upstream of the splice site. These oligonucleotides were screened as before at a dose of 200 nM oligonucleotide for effect on short and long bcl-x transcripts.
# bax mRNA = bax mRNA by RNAse protection assay; type: cell-based
# Method: ISIS 22783 was tested by RNAse protection assay for ability to inhibit bax, another apoptotic gene. It had no effect on bax mRNA levels.
# human bcl-x mRNA [10] = assay: Total bcl-x mRNA and bcl-xs/bcl-xl ratio in A549 cells, RNase protection; type: cell-based; remark: listed apart in the source
# [11] = test system: Human IL-5 receptorα membrane form mRNA; assay: Human IL-5 receptorα membrane form mRNA expression (18 hr); type: cell-based; design: % INHIB'N, human IL-5 receptorα membrane form mRNA / % of CONTROL, human IL-5 receptorα membrane form mRNA: concentration or dose not given beside the values; settings: 18 hr
# From the text: mRNA transcripts encoding the membrane form of the human IL-5 receptorα contain exons 1-10 and 12-14. Exon 11 is spliced out. It is, therefore, possible to target sequences in exons 1-10 which are common to both soluble and membrane forms of the receptor, or to selectively target sequences only present in the membrane form (exons 12-14). Oligonucleotides were also designed to target various intron/exon boundaries downstream of exon 11, with the intention of preventing successful splicing out of exon 11 and thus redirecting splice products away from the membrane form and in favor of the soluble form of IL-5 receptorα.
# (§4) A series of oligonucleotides were designed to target various splice sites or (intron-exon boundaries) in the IL-5 receptor mRNA.
# Human IL-5 receptorα = Human IL-5 receptorα protein expression on the cell surface (36 hr), TF-1 cells; type: cell-based; design: % INHIB, human IL-5 receptorα protein on the cell surface / % of CONTROL, human IL-5 receptorα protein on the cell surface: concentration or dose not given beside the values; settings: 36 hr
# From the text: as §4
# ISIS 16746, 16748, 16755 and 16758 inhibited human IL-5 receptorα protein by over 50% in this assay and are therefore preferred. ISIS 16758 and 16755 were chosen for further study.
# [12] = test system: Human IL-5 receptorα soluble form mRNA; assay: Human IL-5 receptorα soluble form transcript, Northern blot; type: cell-based; settings: Northern blot analysis
# From the text: ISIS 16746, 16748 and 16755 inhibited IL-5 receptor mRNA expression by over 50% and are therefore preferred in this assay. […] Thus it is believed that ISIS 16755 redirects splicing in favor of the membrane form, as is consistent with data obtained with other non-RNAse H (e.g., uniform 2′-methoxyethoxy) oligonucleotides targeted to splice sites.
substance,measurement,setting,value
"ISIS 106344: CATAAGCACATTTATTGTCA, SEQ ID 66; uniformly 2′-MOE phosphorothioate; E-selectin Type III poly(A) signal (all 2'-MOE, all phosphorothioate, methylation of C not given here)",duration of E-selectin protein expression,"E-selectin; TNF-α 2 hours, versus control oligonucleotide",sustained expression of E-selectin protein
same,time of maximal E-selectin protein expression,E-selectin; after addition of TNF-α,four hours after addition of TNF-α
same,Type I E-selectin message (RT-PCR),E-selectin mRNA [1],increased
same,Type II E-selectin message (RT-PCR),E-selectin mRNA [1],increased
same,Type III E-selectin message (RT-PCR),E-selectin mRNA [1],decrease
same,stability of the shorter (type I/II) messages following TNF-α removal,E-selectin mRNA [2],More than half of the shorter messages remained five hours
same,time following TNF-α removal at which about one half of the type II message remained,E-selectin mRNA [2]; message printed as type II,~2.5 h
same,longer Type III E-selectin message (Northern blot),[3],decreased
same,shorter E-selectin message (Type I and II) (Northern blot),[3],increased
"ISIS 22783: CTGGATCCAAGGCTCTAGGT, SEQ ID 44; fully 2′-MOE, full-phosphorothioate; bcl-xl Exon 1L 664-683 (e[5mC]*eT*eG*eG*eA*eT*e[5mC]*e[5mC]*eA*eA*eG*eG*e[5mC]*eT*e[5mC]*eT*eA*eG*eG*eT)",% Apoptotic cells (approx),A549 cells [4]; cisplatinum 0 μg/ml,~3%
same,% Apoptotic cells (approx),A549 cells [4]; cisplatinum 1 μg/ml,~6%
same,% Apoptotic cells (approx),A549 cells [4]; cisplatinum 10 μg/ml,~13%
same,% Apoptotic cells (approx),A549 cells [4]; cisplatinum 50 μg/ml,~27%
same,bcl-xs mRNA expression in mouse liver,murine bcl-x mRNA [5],slight induction of bcl-xs mRNA expression
same,% Apoptotic cells (approx),A549 cells [6]; taxol 0 μg/ml,~8%
same,% Apoptotic cells (approx),A549 cells [6]; taxol 5 μg/ml,~8%
same,% Apoptotic cells (approx),A549 cells [6]; taxol 10 μg/ml,~15%
same,% Apoptotic cells (approx),A549 cells [6]; taxol 30 μg/ml,~26%
same,induction of bcl-xs mRNA,murine bcl-x mRNA [7],induction of bcl-xs mRNA
same,% Apoptotic cells (approx),A549 cells [8]; UV 0 mJ/M^2,~2%
same,% Apoptotic cells (approx),A549 cells [8]; UV 50 mJ/M^2,~4%
same,% Apoptotic cells (approx),A549 cells [8]; UV 100 mJ/M^2,~33%
same,% Apoptotic cells (approx),A549 cells [8]; UV 200 mJ/M^2,~27%
same,time after treatment at which bcl-xs induction with concurrent bcl-xL reduction begins,human bcl-x mRNA [9]; A549 cells,2 to 4 h
same,% CRTL total bcl-x,human bcl-x mRNA [9]; A549 cells (Table 13),without reducing the total bcl-x mRNA level
same,bcl-xs/bcl-xl (%),"human bcl-x mRNA [9]; A549 cells, no oligo 17.56",293%
same,approx. ratio of bcl-xs/bcl-xl,human bcl-x mRNA [9]; Oligo Concentration 200 (unit not given),~8.5
same,effect on bax mRNA levels,bax mRNA,no effect
same,approx. ratio of bcl-xs/bcl-xl,human bcl-x mRNA [10]; Oligo Concentration 100 (unit not given),~4.5
same,approx. ratio of bcl-xs/bcl-xl,human bcl-x mRNA [10]; Oligo Concentration 400 (unit not given),~18
"ISIS 16755: GAACACTTACATTTTACAGA, SEQ ID 34; E12/I12; 2′-MOE pattern not visible (antisense eG*eA*eA*e[5mC]*eA*e[5mC]*eT*eT*eA*e[5mC]*eA*eT*eT*eT*eT*eA*e[5mC]*eA*eG*eA)","% INHIB'N, human IL-5 receptorα membrane form mRNA",[11],over 50%
same,"% INHIB, human IL-5 receptorα protein on the cell surface",Human IL-5 receptorα,over 50%
same,inhibition of the soluble form transcript,[12],without significantly inhibiting the soluble form
